From PMC7000700, “RyR1-targeted drug discovery pipeline integrating FRET-based high-throughput screening and human myofiber dynamic Ca^2+ assays” (Scientific Reports, 2020)
Read-outs that look alike come from different tables or passages of the source.

Key:
[1] = system: RyR1 Ca^2+ leak in human skinned skeletal muscle fibers; assay: t-system Ca2+ readout of RyR1 Ca2+ leak in human mechanically skinned skeletal muscle fibers; conditions: for Reduction of RyR1 Ca2+ leak: at identified compound concentrations that only slightly affected Ca2+ release in EC coupling
RyR2 [2] = target: T1, RyR2 (Sus scrofa, UniProt A0A5G2R1W3); assay: F-FKBP binding to RyR2 by co-sedimentation with cardiac SR membranes; parameters: using co-sedimentation with pig skeletal and cardiac SR membranes; from tissue; host or cells: pig cardiac muscle (crude SR membranes); species or system pig; conditions: RyR2, 10 μM Hit, 30 nM Ca2+, 5 mM GSSG or GSH
Experimental: (§1) The Hit-induced effect on FRET between D-FKBP and A-CaM most likely results from one or the combination of factors, including a shift in CaM and/or FKBP12.6 binding, and/or structure of the RyR complex that shifts the D-A distance. Under the same assay conditions as in the primary screen, we assessed the effect of 10 μM Hit on fluorescent FKBP12.6 (F-FKBP) binding to RyRs, using co-sedimentation with pig skeletal and cardiac SR membranes.
(§2) Supplementary Fig. 3 Effect of HTS Hits on F-FKBP binding to a) RyR1 in skeletal HSR membranes, and b) RyR2
(§3) in cardiac CSR membranes at 30 nM Ca2+ in the presence of 5 mM GSSG or GSH. Results are represented as individual
(§4) data points and means ± SEM, n = 4-5. *P < 0.05 by 2-sided Student’s unpaired t-test. […]

RyR1 [3] = target: T2, RyR1 (Sus scrofa, UniProt P16960); assay: F-FKBP binding to RyR1 by co-sedimentation with skeletal SR membranes; parameters: using co-sedimentation with pig skeletal and cardiac SR membranes; from tissue; host or cells: pig skeletal muscle (heavy SR membranes); species or system pig; conditions: RyR1, 10 μM Hit, 30 nM Ca2+, 5 mM GSSG or GSH
T2 sequence (P16960 whole entry): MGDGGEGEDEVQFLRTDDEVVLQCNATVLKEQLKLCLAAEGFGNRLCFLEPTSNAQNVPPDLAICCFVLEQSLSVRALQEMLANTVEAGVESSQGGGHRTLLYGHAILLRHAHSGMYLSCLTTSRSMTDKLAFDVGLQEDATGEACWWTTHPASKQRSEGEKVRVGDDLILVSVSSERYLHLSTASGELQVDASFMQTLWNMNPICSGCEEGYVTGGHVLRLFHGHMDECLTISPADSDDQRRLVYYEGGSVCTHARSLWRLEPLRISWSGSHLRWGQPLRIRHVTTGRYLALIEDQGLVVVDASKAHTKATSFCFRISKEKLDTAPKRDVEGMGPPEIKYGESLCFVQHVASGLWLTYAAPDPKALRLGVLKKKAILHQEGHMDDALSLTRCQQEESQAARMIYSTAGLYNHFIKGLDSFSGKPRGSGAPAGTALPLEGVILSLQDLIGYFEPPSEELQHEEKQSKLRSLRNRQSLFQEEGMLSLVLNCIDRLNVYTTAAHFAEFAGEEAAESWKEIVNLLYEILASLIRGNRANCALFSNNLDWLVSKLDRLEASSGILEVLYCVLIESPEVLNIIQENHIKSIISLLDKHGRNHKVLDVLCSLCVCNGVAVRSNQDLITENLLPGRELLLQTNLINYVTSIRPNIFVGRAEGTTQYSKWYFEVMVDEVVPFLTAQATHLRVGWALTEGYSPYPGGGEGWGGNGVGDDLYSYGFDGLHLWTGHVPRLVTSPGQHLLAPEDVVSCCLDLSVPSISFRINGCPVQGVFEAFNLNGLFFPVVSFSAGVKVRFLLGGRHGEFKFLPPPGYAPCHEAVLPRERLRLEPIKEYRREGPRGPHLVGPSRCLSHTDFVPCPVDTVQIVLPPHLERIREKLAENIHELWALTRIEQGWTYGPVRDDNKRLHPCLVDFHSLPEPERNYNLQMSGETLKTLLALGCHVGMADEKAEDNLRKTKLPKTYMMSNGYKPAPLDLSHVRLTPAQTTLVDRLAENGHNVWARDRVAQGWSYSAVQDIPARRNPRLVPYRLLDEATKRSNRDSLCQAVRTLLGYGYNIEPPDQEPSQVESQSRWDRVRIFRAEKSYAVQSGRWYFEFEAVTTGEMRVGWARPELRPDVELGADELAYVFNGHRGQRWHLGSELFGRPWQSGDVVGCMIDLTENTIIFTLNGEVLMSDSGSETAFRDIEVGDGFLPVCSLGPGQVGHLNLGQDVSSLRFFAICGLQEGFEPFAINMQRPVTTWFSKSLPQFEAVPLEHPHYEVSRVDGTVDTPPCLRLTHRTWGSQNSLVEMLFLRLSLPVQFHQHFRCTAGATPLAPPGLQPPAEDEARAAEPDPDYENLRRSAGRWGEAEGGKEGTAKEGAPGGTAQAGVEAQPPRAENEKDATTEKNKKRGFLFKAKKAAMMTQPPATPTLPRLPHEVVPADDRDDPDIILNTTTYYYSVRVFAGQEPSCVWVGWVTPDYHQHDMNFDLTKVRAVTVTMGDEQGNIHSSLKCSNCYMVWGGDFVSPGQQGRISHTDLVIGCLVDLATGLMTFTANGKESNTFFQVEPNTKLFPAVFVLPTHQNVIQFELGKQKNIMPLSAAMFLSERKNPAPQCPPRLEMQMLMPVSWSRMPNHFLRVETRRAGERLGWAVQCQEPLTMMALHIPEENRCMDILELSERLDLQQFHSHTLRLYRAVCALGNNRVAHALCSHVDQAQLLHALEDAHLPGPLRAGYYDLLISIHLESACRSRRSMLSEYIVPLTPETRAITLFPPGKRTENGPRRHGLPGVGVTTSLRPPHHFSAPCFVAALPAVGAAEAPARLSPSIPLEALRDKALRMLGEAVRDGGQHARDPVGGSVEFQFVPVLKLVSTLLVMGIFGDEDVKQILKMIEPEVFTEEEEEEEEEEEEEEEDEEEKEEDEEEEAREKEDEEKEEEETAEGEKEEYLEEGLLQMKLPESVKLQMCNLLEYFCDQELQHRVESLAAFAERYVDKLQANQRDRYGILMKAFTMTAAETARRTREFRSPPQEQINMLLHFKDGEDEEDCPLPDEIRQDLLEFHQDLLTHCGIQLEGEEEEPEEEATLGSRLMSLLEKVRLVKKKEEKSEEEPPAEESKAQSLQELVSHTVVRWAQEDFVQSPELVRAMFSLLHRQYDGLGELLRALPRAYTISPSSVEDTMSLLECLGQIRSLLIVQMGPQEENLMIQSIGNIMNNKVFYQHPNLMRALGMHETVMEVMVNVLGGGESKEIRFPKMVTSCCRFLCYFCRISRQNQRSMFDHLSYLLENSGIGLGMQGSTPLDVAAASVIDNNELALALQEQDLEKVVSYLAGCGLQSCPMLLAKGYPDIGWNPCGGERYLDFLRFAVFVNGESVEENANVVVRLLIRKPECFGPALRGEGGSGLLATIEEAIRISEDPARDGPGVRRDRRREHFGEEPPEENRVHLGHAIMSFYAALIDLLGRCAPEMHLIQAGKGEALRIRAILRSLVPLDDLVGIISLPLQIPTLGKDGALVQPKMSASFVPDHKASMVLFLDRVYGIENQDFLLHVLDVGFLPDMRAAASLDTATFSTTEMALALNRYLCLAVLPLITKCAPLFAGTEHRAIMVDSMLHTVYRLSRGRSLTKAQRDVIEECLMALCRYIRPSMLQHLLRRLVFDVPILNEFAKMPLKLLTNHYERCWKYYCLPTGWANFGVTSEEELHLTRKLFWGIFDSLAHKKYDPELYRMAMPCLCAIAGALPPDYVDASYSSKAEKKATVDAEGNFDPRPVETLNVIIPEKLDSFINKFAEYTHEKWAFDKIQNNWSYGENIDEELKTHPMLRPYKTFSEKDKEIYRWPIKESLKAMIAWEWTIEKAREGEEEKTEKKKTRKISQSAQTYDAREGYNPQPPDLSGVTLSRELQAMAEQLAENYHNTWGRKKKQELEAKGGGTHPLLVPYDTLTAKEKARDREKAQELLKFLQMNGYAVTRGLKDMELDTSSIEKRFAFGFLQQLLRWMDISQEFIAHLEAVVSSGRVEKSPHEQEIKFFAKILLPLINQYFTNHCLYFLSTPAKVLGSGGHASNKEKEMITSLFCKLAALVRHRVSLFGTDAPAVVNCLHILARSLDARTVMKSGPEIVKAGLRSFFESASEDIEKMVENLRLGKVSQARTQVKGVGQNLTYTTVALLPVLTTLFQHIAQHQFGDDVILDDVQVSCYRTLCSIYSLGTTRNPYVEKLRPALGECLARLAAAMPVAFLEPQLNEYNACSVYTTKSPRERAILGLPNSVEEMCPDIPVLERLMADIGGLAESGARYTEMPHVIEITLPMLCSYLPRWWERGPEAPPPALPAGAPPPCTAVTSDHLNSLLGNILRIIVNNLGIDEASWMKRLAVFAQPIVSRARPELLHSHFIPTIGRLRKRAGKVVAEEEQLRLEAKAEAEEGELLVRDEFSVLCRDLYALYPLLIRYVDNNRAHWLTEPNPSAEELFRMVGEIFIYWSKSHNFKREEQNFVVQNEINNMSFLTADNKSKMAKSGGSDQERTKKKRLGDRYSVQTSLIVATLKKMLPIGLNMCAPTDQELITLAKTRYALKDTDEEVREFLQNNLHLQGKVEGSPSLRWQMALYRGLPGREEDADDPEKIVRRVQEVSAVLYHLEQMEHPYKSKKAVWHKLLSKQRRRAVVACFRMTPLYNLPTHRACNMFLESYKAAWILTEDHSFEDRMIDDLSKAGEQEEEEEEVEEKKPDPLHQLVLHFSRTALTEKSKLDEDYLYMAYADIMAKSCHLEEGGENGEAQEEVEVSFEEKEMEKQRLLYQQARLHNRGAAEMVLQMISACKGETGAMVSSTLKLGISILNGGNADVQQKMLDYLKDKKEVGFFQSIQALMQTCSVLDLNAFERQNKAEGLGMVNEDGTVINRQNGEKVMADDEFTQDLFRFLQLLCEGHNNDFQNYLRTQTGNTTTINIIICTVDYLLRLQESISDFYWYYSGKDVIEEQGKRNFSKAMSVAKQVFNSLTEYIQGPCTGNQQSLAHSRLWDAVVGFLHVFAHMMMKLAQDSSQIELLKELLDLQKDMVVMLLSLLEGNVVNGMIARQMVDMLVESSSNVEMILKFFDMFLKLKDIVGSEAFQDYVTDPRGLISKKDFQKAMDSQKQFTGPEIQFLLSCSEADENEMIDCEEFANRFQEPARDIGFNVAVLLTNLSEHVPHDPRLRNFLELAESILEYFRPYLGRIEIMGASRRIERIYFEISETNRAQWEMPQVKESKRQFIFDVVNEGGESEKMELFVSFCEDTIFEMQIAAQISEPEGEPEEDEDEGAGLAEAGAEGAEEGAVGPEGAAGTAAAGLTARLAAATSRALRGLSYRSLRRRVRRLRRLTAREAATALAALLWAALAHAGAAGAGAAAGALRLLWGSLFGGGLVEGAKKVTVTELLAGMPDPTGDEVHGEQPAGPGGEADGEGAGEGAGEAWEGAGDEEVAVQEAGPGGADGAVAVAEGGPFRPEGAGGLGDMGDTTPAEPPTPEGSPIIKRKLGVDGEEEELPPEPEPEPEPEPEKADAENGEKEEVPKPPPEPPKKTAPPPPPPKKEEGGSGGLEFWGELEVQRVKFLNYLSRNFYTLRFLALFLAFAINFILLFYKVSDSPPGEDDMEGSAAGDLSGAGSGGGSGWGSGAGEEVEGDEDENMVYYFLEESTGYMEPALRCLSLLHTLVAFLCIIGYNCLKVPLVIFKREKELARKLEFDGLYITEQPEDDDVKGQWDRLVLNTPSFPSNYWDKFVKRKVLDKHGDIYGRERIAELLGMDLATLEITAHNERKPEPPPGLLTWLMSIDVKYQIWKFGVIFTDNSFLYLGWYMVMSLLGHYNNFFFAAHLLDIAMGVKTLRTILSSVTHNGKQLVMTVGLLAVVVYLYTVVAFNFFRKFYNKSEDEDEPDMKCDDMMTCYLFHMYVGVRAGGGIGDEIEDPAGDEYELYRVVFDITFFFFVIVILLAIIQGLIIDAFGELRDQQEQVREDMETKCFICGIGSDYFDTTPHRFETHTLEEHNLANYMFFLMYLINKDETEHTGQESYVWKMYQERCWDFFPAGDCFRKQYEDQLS
Experimental: as §1, §2, §3, §4

RyR2 [4] = target: T1, RyR2; assay: [3H]ryanodine binding to cardiac SR vesicles; format: biochemical, porcine; parameters: RyR1 in skeletal SR membranes, and RyR2 in cardiac SR membranes; from tissue; host or cells: porcine cardiac left ventricle (crude SR vesicles); conditions: micromolar compound, significant only with CaM at 30 nM Ca2+ and only without CaM at 30 μM Ca2+
Experimental: (§5) To evaluate the functional impact of compounds identified through our FRET-based screen, we first used [^3H]ryanodine binding assays. The level of [^3H]ryanodine binding to RyRs in SR membranes is a well-established index of the RyR channel activity. Given the role of CaM binding in our FRET readout, we investigated whether CaM influences the functional effect of the Hit compounds by carrying out [^3H]ryanodine binding assays in the absence and presence of CaM (300 nM).
Crude sarcoplasmic reticulum (CSR) vesicles were isolated from porcine longissimus dorsi muscle and porcine cardiac left ventricle tissue by differential centrifugation of homogenized tissue. […] Immediately prior to the fluorescence or [^3H]ryanodine binding studies described below, the SR vesicles were stripped of residual endogenous CaM by incubation with a peptide derived from the CaM binding domain of myosin light chain kinase, followed by sedimentation.
In 96-well plates, HSR vesicles (1 mg/ml) and cardiac CSR vesicles (3 mg/mL) were pre-incubated with 0.02% DMSO or Hit compound, with or without 300 nM CaM, for 30 min at 22 °C in a solution containing 150 mM KCl, 5 mM GSSG, 1 µg/mL Aprotinin/Leupeptin, 1 mM EGTA, and 65 µM or 1.02 mM CaCl2 (as determined by MaxChelator to yield 30 nM or 30 μM of free Ca^2+, respectively), 0.1 mg/mL BSA and 20 mM K-PIPES (pH 7.0). […]

RyR1 [5] = target: T2, RyR1; assay: [3H]ryanodine binding to skeletal SR vesicles; format: biochemical, porcine; parameters: RyR1 in skeletal SR membranes, and RyR2 in cardiac SR membranes; from tissue; host or cells: porcine longissimus dorsi muscle (heavy SR vesicles)
Experimental: as §5
Crude sarcoplasmic reticulum (CSR) vesicles were isolated from porcine longissimus dorsi muscle and porcine cardiac left ventricle tissue by differential centrifugation of homogenized tissue. HSR vesicles, which are enriched in RyR1, were isolated by fractionation of crude skeletal SR vesicles using a discontinuous sucrose gradient. All vesicles were flash-frozen and stored at −80 °C. Immediately prior to the fluorescence or [^3H]ryanodine binding studies described below, the SR vesicles were stripped of residual endogenous CaM by incubation with a peptide derived from the CaM binding domain of myosin light chain kinase, followed by sedimentation.
In 96-well plates, HSR vesicles (1 mg/ml) and cardiac CSR vesicles (3 mg/mL) were pre-incubated with 0.02% DMSO or Hit compound, with or without 300 nM CaM, for 30 min at 22 °C in a solution containing 150 mM KCl, 5 mM GSSG, 1 µg/mL Aprotinin/Leupeptin, 1 mM EGTA, and 65 µM or 1.02 mM CaCl2 (as determined by MaxChelator to yield 30 nM or 30 μM of free Ca^2+, respectively), 0.1 mg/mL BSA and 20 mM K-PIPES (pH 7.0). Non-specific and maximal [^3H]ryanodine binding to SR were separately assessed by addition of 40 µM non-radioactively labeled ryanodine or 5 mM Adenylyl-imidodiphosphate, respectively. Such control samples were each distributed over 4 wells/plate. Binding of [^3H]ryanodine (10 and 15 nM for cardiac and skeletal SR, respectively) was determined after a 3-h incubation (37 °C) and filtration through grade GF/B Glass Microfiber filters (Brandel Inc., Gaithersburg, MD, US) using a Brandel Harvester. In 4 mL of Ecolite Scintillation cocktail (MP biomedicals, Solon, OH, USA), [^3H] on filter was counted using a Beckman LS6000 scintillation counter (Fullerton, CA).

MH-linked RyR1 mutant = system: MH-linked RyR1 mutant; parameters: method as in PMID 29674523; conditions: HEK293 cells; cited from earlier work
RyR1 [6] = target: T2, RyR1; parameters: RyR1 in skeletal SR membranes; from tissue; host or cells: porcine longissimus dorsi muscle (heavy SR vesicles); method as in PMID 27760856; conditions: skeletal HSR, previous study; cited from earlier work
[7] = 10 μM compound, 200 nM [Ca2+]cyto

Decrease of F-FKBP binding (RyR2 [2])	Decrease of F-FKBP binding (RyR1 [3])	Effect on [3H]ryanodine binding (RyR2 [4])	Maximum decrease in [3H]ryanodine binding (RyR1 [5]; 1 μM compound, 30 μM Ca2+)	Effect on [3H]ryanodine binding (RyR1 [5]; 20 μM compound, 30 nM Ca2+, only in the absence of CaM)	Effect on [3H]ryanodine binding (RyR1 [5]; 30 μM Ca2+, presence and absence of 0.3 μM CaM, 0-20 μM compound)	Decrease in [3H]ryanodine binding (RyR1 [5]; ≤ 10 μM compound, 30 nM Ca2+, with or without CaM) [%]	Structure (SMILES)	Effect on steady-state [Ca2+]t-sys vs control (RyR1 leak) ([1]; 1 μM compound, 200 nM [Ca2+]cyto)	Effect on [Ca2+]t-sys relative to RyR blocker tetracaine [1, 7]	Effect on steady-state [Ca2+]t-sys vs control (RyR1 leak) [1, 7]	Reduction of RyR1 Ca2+ leak [1] [%]	Effect on readout of ER Ca2+ phenotypic screen (MH-linked RyR1 mutant)	Effect on steady-state [Ca2+]t-sys vs control (RyR1 leak) ([1]; 100 μM compound, 200 nM [Ca2+]cyto)	Effect on steady-state [Ca2+]t-sys (RyR1 leak) ([1]; all three concentrations tested (1, 10 and 100 μM), towards level of 1 mM tetracaine)	Decrease in [3H]ryanodine binding (RyR1 [6]) [%]
did not alter	did not alter	only inhibits	~ 20%	dramatically increased	biphasic effect	> 50	O=c1c(O)c(-c2cc(O)c(O)c(O)c2)oc2cc(O)cc(O)c12 [myricetin]	decreased	went beyond the effects of 1 mM tetracaine	decreased	> 50				
							Oc1c(Cl)cc(Cl)c2cccnc12 [chloroxine]				> 50	increased RyR1 activity	statistically decreased	progressively reduced	20
